Source: PMC2625337, “Flexible modulation of agonist efficacy at the human A3 adenosine receptor by the imidazoquinoline allosteric enhancer LUF6000” (BMC Pharmacology, 2008)
Each block holds one molecule with its values, some of them ahead of it.

What was measured:
Type in all cases: biochemical
[1] = target: T1, human A1 adenosine receptor (A1 AR) (Homo sapiens, UniProt P30542); conditions: high-efficacy agonist
T1 construct: gene ADORA1; full-length receptor stably expressed in CHO cells, membrane preparation
T1 sequence (P30542 1-326): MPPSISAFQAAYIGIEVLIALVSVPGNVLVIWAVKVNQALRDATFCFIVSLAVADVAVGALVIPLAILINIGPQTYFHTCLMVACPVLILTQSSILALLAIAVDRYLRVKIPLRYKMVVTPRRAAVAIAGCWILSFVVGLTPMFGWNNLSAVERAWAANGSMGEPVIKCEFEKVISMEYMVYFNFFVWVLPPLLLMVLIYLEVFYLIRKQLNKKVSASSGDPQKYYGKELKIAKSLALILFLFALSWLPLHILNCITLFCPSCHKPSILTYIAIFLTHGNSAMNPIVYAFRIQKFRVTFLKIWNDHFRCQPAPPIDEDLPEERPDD

[2] = target: T2, human A3 adenosine receptor (A3 AR) (Homo sapiens, UniProt P0DMS8); test: […]GTPgammaS binding, CHO membranes
T2 construct: gene ADORA3; full-length receptor stably expressed in CHO cells, membrane preparation
T2 sequence (P0DMS8 1-318): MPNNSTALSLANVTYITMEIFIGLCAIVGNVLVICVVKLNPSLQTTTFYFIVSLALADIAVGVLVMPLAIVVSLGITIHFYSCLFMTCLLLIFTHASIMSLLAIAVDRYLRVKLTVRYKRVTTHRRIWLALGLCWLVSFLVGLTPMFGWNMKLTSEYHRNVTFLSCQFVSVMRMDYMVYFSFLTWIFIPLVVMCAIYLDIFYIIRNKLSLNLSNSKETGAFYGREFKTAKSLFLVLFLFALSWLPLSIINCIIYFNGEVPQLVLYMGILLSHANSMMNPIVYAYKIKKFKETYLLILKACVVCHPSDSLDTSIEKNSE

[3] = target: T2, human A3 adenosine receptor (A3 AR); test: […]GTPgammaS binding, CHO membranes; conditions: alone, no LUF6000; antagonist
[4] = target: T2, human A3 adenosine receptor (A3 AR); test: […]GTPgammaS binding, CHO membranes; conditions: agonist alone, no LUF6000

Compound: OC[C@H]1O[C@@H](n2cnc3c(NC4CCCC4)nc(Cl)nc32)[C@H](O)[C@@H]1O [CCPA, 2-chloro-N^6-cyclopentyladenosine]
[35S]GTPgammaS binding, CHO membranes [1]: high-efficacy agonists CPA and CCPA or a low efficacy agonist MRS541 to activate the A1

Compound: CNC(=O)[C@H]1O[C@@H](n2cnc3c(NCc4cccc(I)c4)ncnc32)[C@H](O)[C@@H]1O [IB-MECA]
[35S]GTPgammaS binding, CHO membranes ([2]; agonist): IB-MECA was almost as efficacious as Cl-IB-MECA

Compound: Clc1ccc(Nc2nc3ccccc3c3nc(C4CCCCC4)[nH]c23)cc1Cl [LUF6000, N-(3,4-dichloro-phenyl)-2-cyclohexyl-1H-imidazo [4,5-c]quinolin-4-amine]
[35S]GTPgammaS binding, CHO membranes ([2]; allosteric enhancer, tested at 0.1-10 µM with agonists): LUF6000 showed a flexible modulatory effect of efficacy

Emax (%) [3]: 5.6 ± 2.5%
Compound: OC[C@H]1O[C@@H](n2cnc3c(NCc4cccc(I)c4)nc(Cl)nc32)[C@H](O)[C@@H]1O [MRS542, 2-chloro-N^6-(3-iodobenzyl)adenosine]

Emax (% of NECA) [4]: < 10%
Compound: O=c1[nH]cnc2c1ncn2[C@@H]1O[C@H](CO)[C@@H](O)[C@H]1O [inosine]
